A short description of this series: gradient 5% acetonitrile 3 min, to 50% in 2 min, to 85% in 15 min, held 3 min, 100 µL/min. The settings on record: column: Zorbax Extend-C18 2.1 x 50 mm; eluents: water / acetonitrile, 0.1% formic acid. The procedure, abridged: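 Standards, all pure, were combined into mixtures of ~100 molecules and run at 100 μL/min on a Zorbax Extend-C18 column (2.1 × 50 mm, 1.8 μm) with water and acetonitrile, each containing 0.1% formic acid. A coupled quadrupole time-of-flight mass spectrometer operated in positive and negative ionization mode. Retention time values come from computationally picked adduct peaks, each inspected manually.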
For `Cc1noc(C)c1S(=O)(=O)N1CCC(n2c(C)cnc2-c2cccnc2)C1` (stereo not drawn), the RP-LC retention time amounted to 616 s.

`O=S(=O)(NC1CCCCCC1)c1ccc2c(c1)-c1oncc1CO2` displayed an RP-LC retention time of 1000 s.

On to `CC(C)NC(=O)c1c2c(nc3ccccc13)CCC2`, for which the RP-LC retention time turned out to be 593 s.

The compound `CN(C)CCCNC(=O)C1CCN(c2nc3ccc(-c4ccccc4)nc3s2)CC1` had an RP-LC retention time of 668 s.

In turn, `COCC(=O)Nc1cnc(-c2ccc(C(F)(F)F)cc2)nc1` displayed an RP-LC retention time of 922 s.

`O=C(Cc1csc2nc(-c3cccc(Br)c3)cn12)Nc1ccccc1F` registered an RP-LC retention time of 958 s.

`COc1nc2ccccc2nc1N1CCCC(C(=O)N2CCC(C)CC2)C1` (stereo not drawn) had an RP-LC retention time of 1110 s.

`Cc1ccc(S(=O)(=O)N2CCCC(c3nc(-c4cccc(-c5ccnn5C)c4)no3)C2)cc1` (stereo not drawn) showed an RP-LC retention time of 1140 s.

`O=C(NCc1ccc(-c2nc(-c3ccc(F)cc3)no2)s1)C1CCC1` registered an RP-LC retention time of 975 s.

`CCc1noc(C2(NC(=O)c3ccc(Br)cc3)CCCCC2)n1` showed an RP-LC retention time of 1030 s.

In turn, `CCN(CC)CCCNC(=O)C1CCCN(C(=O)c2nnc(C(=O)Nc3ccc(F)cc3)s2)C1` (stereo not drawn) returned an RP-LC retention time of 652 s.

Turning to `CCOC(=O)c1cc(S(=O)(=O)N2CCCC2C(=O)Nc2nc3ccc(OC)cc3s2)cn1C` (stereo not drawn), the RP-LC retention time stood at 947 s.

The compound `Cc1cc(C)cc(NC(=O)Cc2csc3nc(-c4ccc(C)c(C)c4)cn23)c1` showed an RP-LC retention time of 966 s.

With `Cc1ccc(-c2noc(C3CCCN3C(=O)NC3CCCCC3)n2)cc1` (stereo not drawn), the RP-LC retention time was determined as 1020 s.

In turn, `Cc1nnc2cc(N3CCN(C(=O)Nc4cccc(Cl)c4)CC3)cnn12` came in with an RP-LC retention time of 596 s.

Compound `COc1ccc(CCNC(=O)CSc2nnc(Cc3csc(N)n3)n2C)cc1OC` registered an RP-LC retention time of 539 s.

The compound `COc1cc(NC(=O)COc2cc(C)nc(N3CCN(c4ccccc4)CC3)n2)cc(OC)c1OC` came in with an RP-LC retention time of 764 s.

The compound `Cc1ccccc1NC(=O)Cn1cnc2c(sc3nc(-c4ccccc4)ccc32)c1=O` had an RP-LC retention time of 961 s.

Take `O=C(NCCC1CCN(S(=O)(=O)c2ccc(F)cc2)CC1)Nc1ccccc1`: the RP-LC retention time stood at 881 s.

`Cc1ccc(NC(=O)C2CCN(S(=O)(=O)c3cc(C(=O)N4CCCC4)n(C)c3)CC2)nc1` registered an RP-LC retention time of 647 s.

In turn, `O=C(NCc1ccc(-c2noc(-c3n[nH]c4c3CCCC4)n2)s1)C1CC1` registered an RP-LC retention time of 786 s.

On to `Cc1ccc(CNc2ccc3nnc(C4CCC4)n3n2)o1`, for which the RP-LC retention time came out at 883 s.

Compound `Cc1ccn2cc(C(=O)N3CCN(c4ccc(Cl)cc4)CC3)nc2c1` came in with an RP-LC retention time of 715 s.

Take `Cc1ccc(-c2nnc(SCC(=O)N3CCC(C)CC3)o2)cc1`: the RP-LC retention time worked out at 986 s.

Consider `O=C(NCc1ccccc1F)c1ccc(Cn2c(C(F)(F)F)nc3cccnc32)cc1`, for which the RP-LC retention time was found to be 876 s.

`O=C(NCCc1c[nH]c2ccc(Cl)cc12)c1cncc(Br)c1` showed an RP-LC retention time of 851 s.

In the case of `COC(=O)C1=C(CN2CCN(C)CC2)NC(=O)NC1c1ccc(OC)c(OC)c1` (stereo not drawn), the RP-LC retention time worked out at 567 s.

As to `CN(C)c1cccc(-c2nc(-c3ccc4c(c3)ncn4CCC(=O)N3CCCC3)no2)c1`, the RP-LC retention time stood at 794 s.

`O=[N+]([O-])c1ccc(-c2csc(N3CCOCC3)n2)cc1`: the RP-LC retention time worked out at 1000 s.

`CCCNC(=O)C1CCN(c2ccc(SCC(=O)Nc3ccc4c(c3)OCO4)nn2)CC1`: the RP-LC retention time is 610 s.

In the case of `COc1ccc(OCc2nc(Cc3nc(-c4cccc(C)c4)oc3C)no2)cc1`, the RP-LC retention time is 1160 s.

Consider `CCc1nnc2cc(N3CCN(S(=O)(=O)c4cccc(F)c4)CC3)cnn12`, for which the RP-LC retention time is 690 s.

`Cc1ccc(-c2ccc(=O)n(CCc3nc(-c4ccc5c(c4)OCO5)no3)n2)cc1`: the RP-LC retention time was determined as 711 s.

Take `O=C(Nc1ccc2c(c1)CN(C(=O)c1ccco1)CC2)c1cnccn1`: the RP-LC retention time turned out to be 662 s.

With `CC(=O)N(Cc1nn(C)c2c1CN(S(=O)(=O)c1cc(C)cc(C)c1)CC2)c1ccccc1`, the RP-LC retention time came out at 856 s.

`CC(C)N1CCN(Cc2nc(-c3ccc(N4CCOCC4)nc3)no2)CC1` registered an RP-LC retention time of 574 s.

`Cc1nn(C)c(=O)c2cc(S(=O)(=O)N3CCC(Cc4ccccc4)CC3)cn12` displayed an RP-LC retention time of 943 s.

Consider `O=C(NC1CCCCC1)c1cccn1Cc1noc(-c2ccccc2)n1`, for which the RP-LC retention time turned out to be 1070 s.

As for `Cc1ccc(NC(=O)c2cn(C)nc2S(=O)(=O)N2CCSCC2)cc1Cl`, the RP-LC retention time turned out to be 1080 s.

On to `CC1Oc2ccc(-c3csc(NC(=O)CCc4ccccc4)n3)cc2NC1=O` (stereo not drawn), for which the RP-LC retention time was 1050 s.

With `O=S(=O)(NCc1ccc2c(c1)OCO2)N1CCOCC1`, the RP-LC retention time is 677 s.

`O=S(=O)(Nc1ccc(Cn2cncn2)cc1)c1ccc2c(c1)CCC2` yielded an RP-LC retention time of 759 s.

Take `CCc1ccc(Nc2nc(C(=O)NCCc3cnc[nH]3)nc3ccccc23)cc1`: the RP-LC retention time is 603 s.

`CN(C)c1ncncc1N1CCC(C(=O)N2CCN(c3ccccc3F)CC2)CC1`: the RP-LC retention time came out at 650 s.

Compound `Cn1cc2nc(SCC(=O)Nc3ccc(Cl)cc3F)n(CC3CC3)c(=O)c2n1` had an RP-LC retention time of 954 s.

The compound `COc1ccc(Nc2ccc3c(=O)c(-c4ccccc4OC)coc3c2)c(OC)c1` registered an RP-LC retention time of 940 s.

As for `CCN1CCN(C(=O)C2Cn3cccc3C(=O)N2CC(C)C)CC1` (stereo not drawn), the RP-LC retention time came to 573 s.

Take `CSc1ccc(NC(=O)Nc2cc(C)ccn2)cc1`: the RP-LC retention time came out at 782 s.

Turning to `O=c1cc(-c2ccccc2)oc2c(O)c(O)ccc12`, the RP-LC retention time turned out to be 720 s.

`COc1ccc(Cl)cc1S(=O)(=O)N1CCc2nc(-c3ccc(F)cc3)ncc2C1` gave an RP-LC retention time of 1130 s.

`O=C([C@@H]1COCC(=O)N1Cc1ccccc1)N1CCN(Cc2ccc3c(c2)OCO3)CC1` showed an RP-LC retention time of 606 s.

As for `CCn1cc(S(=O)(=O)N2[C@H]3CC[C@@H]2c2cnc(-c4ccc(F)cc4)nc2C3)cn1`, the RP-LC retention time worked out at 900 s.

For `COc1ccc(C2(C(=O)N3CCOc4ccc(N5CCOCC5)cc4C3)CC2)cc1`, the RP-LC retention time came out at 794 s.

Compound `Cc1nc(-c2noc(-c3ccc(F)cc3)n2)cn1CC(=O)NCc1ccc(F)cc1` displayed an RP-LC retention time of 832 s.

`Cc1nn(-c2ccc(C(=O)N3CCN(c4ccccn4)CC3)cc2)c2c1C(=O)CCC2` yielded an RP-LC retention time of 574 s.

The compound `Cc1noc([C@@H]2CC(F)(F)CN2C(=O)c2cc(C3CC3)[nH]n2)n1` returned an RP-LC retention time of 726 s.

For the compound `O=C(Cn1ncc2c(N3CCN(c4ccccn4)CC3)ncnc21)Nc1ccc(F)cc1Cl`, the RP-LC retention time was determined as 650 s.

On to `COc1ccc2nc(C(=O)NCc3ccccc3C)cn2n1`, for which the RP-LC retention time amounted to 843 s.

In turn, `Cc1cc(C)cc(-c2nnc(Cc3nc(-c4cccc(Cl)c4)no3)o2)c1` displayed an RP-LC retention time of 1230 s.

`Cc1ccc(Cn2c(C(=O)NC3CCC(C)CC3)cc3sccc32)cc1` (stereo not drawn): the RP-LC retention time stood at 1340 s.

With `COC(=O)COC(=O)c1cn(-c2ccc(OC)cc2)c(=O)c2ccccc12`, the RP-LC retention time was determined as 924 s.

`O=C(Cn1c(=O)c2nncn2c2ncccc21)NCc1ccc(Cl)cc1` registered an RP-LC retention time of 671 s.

Compound `COc1cc(OC)cc(-c2nc(-c3ccc4nnn(C(C)C)c4c3)no2)c1` registered an RP-LC retention time of 1160 s.

On to `CCOc1ccc(CCNC(=O)C2CCCN(c3nnc(C)c4c(C)n(-c5ccccc5)nc34)C2)cc1` (stereo not drawn), for which the RP-LC retention time was determined as 759 s.

In turn, `CCN(CC)c1nc2cc(C(=O)NCC3CC3)ccc2c(=O)n1Cc1ccccc1` came in with an RP-LC retention time of 1020 s.

Compound `O=C(Nc1ccnn1Cc1ccccc1)c1cc(=O)c2cc(Cl)ccc2o1` returned an RP-LC retention time of 867 s.

Compound `Cc1ccc(-c2cn3cc(C(=O)N4CCCN(C)CC4)ccc3n2)cc1C` showed an RP-LC retention time of 583 s.

With `CC(C)c1ccc(S(=O)(=O)c2cnc(N3CCC(C(N)=O)(N4CCCCC4)CC3)nc2N)cc1`, the RP-LC retention time was 677 s.

`O=C(NCc1ccc(F)cc1)C1CCCN(c2ccc3cc(S(=O)(=O)N4CCCC4)ccc3n2)C1` (stereo not drawn) returned an RP-LC retention time of 754 s.

Compound `COc1ccc2c(c1)C1(CCN(C(=O)Nc3ccccc3)C1)C(=O)N2` (stereo not drawn) returned an RP-LC retention time of 694 s.

Regarding `O=C(Nc1ccc2nc(-c3ccccc3)cc(N3CCOCC3)c2c1)NC1CCCCC1`, the RP-LC retention time came out at 732 s.

`COc1ccc(NC(=O)NCC2CCOCC2)cc1F` displayed an RP-LC retention time of 668 s.

With `COCc1ncc(C)n1C1CCN(C(=O)c2noc(C)c2Cc2c(C)noc2C)C1` (stereo not drawn), the RP-LC retention time was 617 s.

Regarding `CCn1c(=O)c(=O)n(CC(=O)NC2CCCCCC2)c2cccnc21`, the RP-LC retention time was 760 s.

As to `COc1cccc(-n2c(=O)c(C(=O)NC3CCCC3)c(O)c3cccnc32)c1`, the RP-LC retention time turned out to be 1210 s.

The compound `CCOC(=O)c1[nH]c(C)c(CCC(=O)N2CCC(C(=O)NCCCN3CCOCC3)CC2)c1C` had an RP-LC retention time of 580 s.

Regarding `Cc1ccc(C)c(C(=O)NC(c2ccccc2)c2nnc(N3CCCC3)o2)c1` (stereo not drawn), the RP-LC retention time is 841 s.

On to `COc1ccc(CC(=O)Nc2nnc(SCc3ccccc3F)s2)cc1OC`, for which the RP-LC retention time was determined as 824 s.
